In ChEMBL document CHEMBL4651402, “Screening of ~5500 FDA-approved drugs and clinical candidates for anti-SARS-CoV-2 activity” (2021):
pIC50: −log10 of the molar value.

Test system: SARS-CoV-2
Assay: microbe, parasite or virus in culture
Conditions: Severe acute respiratory syndrome coronavirus 2, Vero C1008, 48 h; for IC50: read-out: pIC50 (converted)

Compound	pIC50	IC50 [µM]
CCC(C)CCCCC(=O)N[C@@H](CCNCS(=O)(=O)O)C(=O)N[C@H](C(=O)N[C@@H](CCNCS(=O)(=O)O)C(=O)N[C@H]1CCNC(=O)[C@H]([C@@H](C)O)NC(=O)[C@@H](CCNCS(=O)(=O)O)NC(=O)[C@@H](CCNCS(=O)(=O)O)NC(=O)[C@H](CC(C)C)NC(=O)[C@@H](CC(C)C)NC(=O)[C@H](CCNCS(=O)(=O)O)NC1=O)[C@@H](C)O (some centres not stated)	< 4.70	> 20
CC(CNC1CCCCC1)OC(=O)c1ccccc1 (configuration not stated) [HEXYLCAINE]	< 4.70	> 20
O=C(/C=C/c1ccc(O)cc1)c1ccccc1O	< 4.70	> 20
CCC(CC)C(c1ccc(Nc2nc3ccccc3s2)cc1)n1cncn1 (racemic) [TALAROZOLE]	< 4.70	> 20
O=C1c2ccccc2C(=O)C1c1ccc(F)cc1 [FLUINDIONE]	< 4.70	> 20
CCCCCCCCCCNCCN[C@@]1(C)C[C@H](O[C@H]2[C@H](Oc3c4cc5cc3Oc3ccc(cc3Cl)[C@H](O)[C@@H](NC(=O)[C@@H](CC(C)C)NC)C(=O)N[C@@H](CC(N)=O)C(=O)N[C@H]5C(=O)N[C@@H]3C(=O)N[C@H](C(=O)N[C@H](C(=O)O)c5cc(O)c(CNCP(=O)(O)O)c(O)c5-c5cc3ccc5O)[C@@H](O)c3ccc(c(Cl)c3)O4)O[C@H](CO)[C@@H](O)[C@@H]2O)O[C@@H](C)[C@H]1O	< 4.70	> 20
c1ccc(-c2cc(CCC3CCNCC3)c3ccccc3n2)cc1 [PIPEQUALINE]	< 4.70	> 20
N[C@@H](Cc1cc(Br)c(O)c(Br)c1)C(=O)O [DIBROMOTYROSINE]	< 4.70	> 20
CC(C)NNC(=O)c1ccncc1 [IPRONIAZID]	< 4.70	> 20
O=C(CO)[C@@H]1CCCN1C(=O)[C@@H]1CCCN1C(=O)NCc1ccccc1	< 4.70	> 20
O=C1NC(=O)C(Cc2ccc3cc(OCc4ccccc4F)ccc3c2)S1 (configuration not stated) [NETOGLITAZONE]	< 4.70	> 20
CCCN1CCC(c2cccc(S(C)(=O)=O)c2)CC1 [PRIDOPIDINE]	< 4.70	> 20
CC1(C)O[C@@H]2[C@@H](CO[C@@]3(COS(N)(=O)=O)OC(C)(C)O[C@@H]23)O1 [TOPIRAMATE]	< 4.70	> 20
CCOC(=O)[C@]1(c2ccccc2)CCC=C[C@H]1N(C)C [DEXTILIDINE]	< 4.70	> 20
CCOC(=O)C(C)(C)Oc1ccc(Cl)cc1 [CLOFIBRATE]	< 4.70	> 20
Nc1cc(-c2ccncc2)c[nH]c1=O [INAMRINONE]	< 4.70	> 20
CN1CC[C@]2(C)c3cc(OC(=O)Nc4ccccc4)ccc3N(C)[C@H]12 [BUNTANETAP]	< 4.70	> 20
COc1c(O[C@@H]2O[C@H](CO)[C@@H](O)[C@H](O)[C@H]2O)cc2c(c1OC)-c1ccc(SC)c(=O)cc1[C@@H](NC(C)=O)CC2 [THIOCOLCHICOSIDE]	< 4.70	> 20
CS(=O)(=O)CCC#N	< 4.70	> 20

Compound	pIC50	IC50 [µM]
Nc1nc2[nH]cnc2c(=S)[nH]1 [THIOGUANINE]	< 4.70	> 20
Oc1c(I)cc(Cl)c2cccnc12 [CLIOQUINOL]	< 4.70	> 20
CCN(CCCCOC(=O)c1ccc(OC)c(OC)c1)C(C)Cc1ccc(OC)cc1 (configuration not stated) [MEBEVERINE]	< 4.70	> 20
O=S(=O)(c1ccccc1)c1cnc2c(N3CCNCC3)cccc2c1 [INTEPIRDINE]	< 4.70	> 20
CC(C)CC(NC(=O)C(Cc1ccccc1)NC(=O)CNC(=O)[C@H](C)NC(=O)C(N)Cc1ccc(O)cc1)C(=O)N[C@H](CCCNC(=N)N)C(=O)O (some centres not stated)	< 4.70	> 20
c1cnc(N2CCN(Cc3ccc4c(c3)OCO4)CC2)nc1 [PIRIBEDIL]	< 4.70	> 20
Nc1ccc(S(=O)(=O)c2ccc(NCC(=O)O)cc2)cc1 [ACEDIASULFONE]	< 4.70	> 20
CCCN(CCC)S(=O)(=O)c1ccc(C(=O)O)cc1 [PROBENECID]	< 4.70	> 20
C/C=C(\C)C(=O)OC1C(OC(C)=O)C2(CO)C(O)CC3(C)C(=CCC4C5(C)CCC(OC6OC(C(=O)O)C(OC7OC(CO)C(O)C(O)C7O)C(O)C6OC6OC(CO)C(O)C(O)C6O)C(C)(CO)C5CCC43C)C2CC1(C)C (configuration not stated)	< 4.70	> 20
CCN(CC)CC(C)OC(=O)[C@H]1CCCC[C@]1(O)C1CCCCC1 (some centres not stated)	< 4.70	> 20
O[C@H]1[C@H](O)[C@@H](O)[C@H](O)[C@@H](O)[C@H]1O [INOSITOL]	< 4.70	> 20
Nc1nc2ccc(OC(F)(F)F)cc2s1 [RILUZOLE]	< 4.70	> 20
CCN1C[C@]2(COC)CC[C@H](O)[C@]34C5C[C@@H]6[C@@H](OC)C[C@@](O)(C5[C@H]6OC)[C@@](O)([C@H]13)[C@@H](OC)C24 (some centres not stated)	< 4.70	> 20
CCN1C[C@@]2(COC)C3[C@@H](OC)[C@H]4[C@H]1C3([C@@H]1C[C@@]3(O)[C@H](OC(=O)c5ccccc5)[C@@H]1[C@]4(OC(C)=O)[C@@H](O)[C@@H]3OC)[C@H](OC)C[C@H]2O	< 4.70	> 20
CC1OC(n2cc(F)c(=O)[nH]c2=O)C(O)C1O (configuration not stated)	< 4.70	> 20
CN(C)CCC(c1ccc(Br)cc1)c1ccccn1 (configuration not stated) [BROMPHENIRAMINE]	< 4.70	> 20
C[C@H](Cc1ccc2c(c1)OC(C(=O)O)(C(=O)O)O2)NC[C@H](O)c1cccc(Cl)c1	< 4.70	> 20
COc1ccc(C2C(=O)c3ccccc3C2=O)cc1 [ANISINDIONE]	< 4.70	> 20
Cc1ccc([C@H]2O[C@H](CO)[C@@H](O)[C@H](O)[C@H]2O)cc1Cc1ccc(-c2ccc(F)cc2)s1	< 4.70	> 20

Compound	pIC50	IC50 [µM]
CC(CCN1CCN(c2ccc(F)cc2)CC1)NC(=O)c1cccnc1 (configuration not stated) [NIAPRAZINE]	< 4.70	> 20
CNC(=O)c1cccc2cc(Oc3ccnc4cc(OCC5(N)CC5)c(OC)cc34)ccc12 [LUCITANIB]	< 4.70	> 20
Cc1c(Nc2ncccc2C(=O)O)cccc1C(F)(F)F [FLUNIXIN]	< 4.70	> 20
CCCC[C@@]1(CC)CS(=O)(=O)c2cc(CNC(CC(=O)O)CC(=O)O)c(OC)cc2[C@H](c2ccccc2)N1	< 4.70	> 20
NC(=O)N1CCC(CC(=O)N2CCC([C@H]3c4ncc(Br)cc4CCc4cc(Cl)cc(Br)c43)CC2)CC1 [LONAFARNIB]	< 4.70	> 20
CCN(CC)CCNc1ccc(CO)c2sc3ccccc3c(=O)c12 [HYCANTHONE]	< 4.70	> 20
COc1ccc(-c2ccc3cc(C(=O)O)ccc3c2)cc1C12CC3CC(CC(C3)C1)C2	< 4.70	> 20
C[C@@H]1C(=O)O[C@H]2[C@H](O)[C@]34[C@@H]5OC(=O)[C@]3(O[C@@H]3OC(=O)[C@H](O)C34C(C(C)(C)C)C5O)[C@@]12O (some centres not stated)	< 4.70	> 20
Cc1cc(Nc2ncc(Cl)c(Nc3ccccc3S(=O)(=O)C(C)C)n2)c(OC(C)C)cc1C1CCNCC1 [CERITINIB]	< 4.70	> 20
O=C(O)c1cc(=O)c2ccccc2[nH]1 [TRANSTORINE]	< 4.70	> 20
CCN(CC)CCOC(=O)C(c1ccccc1)C1(O)CCCC1 (configuration not stated)	< 4.70	> 20
CCc1nc2c(N)nc3ccccc3c2n1CCCCNS(C)(=O)=O [CPG-52852]	< 4.70	> 20
CN(C)[C@@H]1C(O)=C(C(N)=O)C(=O)[C@@]2(O)C(O)=C3C(=O)c4c(O)cccc4[C@@](C)(O)[C@H]3[C@H](O)[C@@H]12 [OXYTETRACYCLINE]	< 4.70	> 20
CC(C)(C)[C@@H](CO)NC(=O)c1nn(-c2c[n+]([O-])ccn2)c2c1C[C@@H]1C[C@H]21 [OLORINAB]	< 4.70	> 20
C=C[C@@]1(C)CC(=O)[C@]2(O)[C@@]3(C)[C@@H](O)CCC(C)(C)[C@@H]3[C@H](O)[C@H](OC(C)=O)[C@@]2(C)O1 [COLFORSIN]	< 4.70	> 20
CC(=O)N[C@@H](Cc1ccc(O)cc1)C(=O)O [ACETYL TYROSINE]	< 4.70	> 20
NS(=O)(=O)c1ccc(N2CCN(CC[C@H]3OCCc4ccccc43)CC2)cc1	< 4.70	> 20
CN(C)CCC=C1c2ccccc2C=Cc2ccccc21 [CYCLOBENZAPRINE]	< 4.70	> 20
